Patent US20260250320A1, “LIPIDATED PEPTIDE INHIBITORS OF INTERLEUKIN-23 RECEPTOR” (Janssen Pharmaceutica NV, priority 2023, published 2026)
*1 amine or outer side, *2 acyl side, *3 side chain or, on linkers, in order; H or OH if unused. Where a SMILES comes first, the peptide text is derived from it. Bridges are numbered along the chain shown (N, C = ends). Side-chain parts run from the residue outwards. [ ]: non-standard residue; d: D form. The star is where a group is joined. X41 = C[N+](C)(CCCCC*)CCOCCOCCNC(=O)COCCOCCCC(=O)CC[C@H](CC(=O)CCCCCCCCCCCCCCCCC(=O)O)C(=O)O; X22 = O=C(O)CCCCCCCCCCCCCCCCC(=O)N[C@@H](CCC(=O)NCCOCCOCC(=O)NCCCCCOCC(=O)*)C(=O)O; Me3N+(CH2)2O(CH2)2O(CH2)2CO = C[N+](C)(C)CCOCCOCCC(=O)*; CH2CH2OCH2CH2OCH2CH2NMe3+ = C[N+](C)(C)CCOCCOCC*; dTrp(7-Me) = Cc1cccc2c(C[C@@H](N)C(=O)O)c[nH]c12; Biotin = O=C1N[C@H]2[C@H](CS[C@H]2CCCCC(=O)*)N1; Trp(7-Me) = Cc1cccc2c(C[C@H](N)C(=O)O)c[nH]c12; C18 diacid = O=C(O)CCCCCCCCCCCCCCCCC(=O)*; γGlu = O=C(O)[C@H](CCC(=O)[*:2])N[*:1]; 2Nal = N[C@@H](Cc1ccc2ccccc2c1)C(=O)O; AEF = NCCOc1ccc(C[C@H](N)C(=O)O)cc1; PEG6 = NCCOCCOCCOCCOCCOCCOCCC(=O)O; 3Pal = N[C@@H](Cc1cccnc1)C(=O)O; Lys(Me) = CNCCCC[C@H](N)C(=O)O; PEG4 = NCCOCCOCCOCCOCCC(=O)O; Pen = CC(C)(S)[C@H](N)C(=O)O; Thp = NC1(C(=O)O)CCOCC1; AEEA = NCCOCCOCC(=O)O; Sar = CNCC(=O)O

Key:
[1] = biological target: T1, IL-23R (Homo sapiens, UniProt Q5VWK5); test: IL23R Reporter Assay; type: cell-based; conditions: HEK293 cells containing IL-23R, IL-12Rβ1 and STAT-inducible firefly luciferase reporter; 10 ng/mL IL-23 (EC90); 5 h
T1 construct: HEK293 cells containing IL-23R, IL-12Rβ1 and a firefly luciferase reporter gene driven by a STAT-inducible promoter (Promega); host or cells: HEK293
T1 sequence (Q5VWK5 24-629): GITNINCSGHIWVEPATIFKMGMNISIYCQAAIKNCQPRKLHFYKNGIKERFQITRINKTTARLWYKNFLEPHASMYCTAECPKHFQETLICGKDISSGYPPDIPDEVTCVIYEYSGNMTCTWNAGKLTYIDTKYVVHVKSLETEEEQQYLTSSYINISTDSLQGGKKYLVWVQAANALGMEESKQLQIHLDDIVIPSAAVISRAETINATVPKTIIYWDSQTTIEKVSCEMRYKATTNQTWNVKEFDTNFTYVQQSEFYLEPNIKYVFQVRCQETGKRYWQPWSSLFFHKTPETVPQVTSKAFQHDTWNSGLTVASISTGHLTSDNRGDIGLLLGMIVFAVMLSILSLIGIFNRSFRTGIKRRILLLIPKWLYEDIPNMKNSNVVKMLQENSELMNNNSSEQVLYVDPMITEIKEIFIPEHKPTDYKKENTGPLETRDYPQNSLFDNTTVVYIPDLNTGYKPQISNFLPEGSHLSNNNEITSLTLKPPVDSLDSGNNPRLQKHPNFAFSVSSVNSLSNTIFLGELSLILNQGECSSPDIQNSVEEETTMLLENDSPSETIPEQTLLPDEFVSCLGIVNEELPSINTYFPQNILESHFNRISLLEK
How it was run: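 HEK293 cells carrying IL-23R, IL-12Rβ1 and a STAT-driven firefly luciferase reporter (4000 cells/well) received compound, then 10 ng/mL IL-23 solution (EC90), and were incubated for 5 h at 37° C. BioGlo luminescence was normalised to IL-23 alone (0%) and 30 μM control inhibitor (100%). IC50 came from a 4-parameter Hill fit.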

[2] = test system: IL-23-stimulated phosphorylated STAT3 in peripheral blood mononuclear cells (PBMCs); test: PBMC pSTAT3 Assay; type: cell-based; conditions: PBMCs from healthy donors; 30 min preincubation with peptide; IL-23 5 ng/mL for 30 min; phospho-STAT3 by MSD
How it was run: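 Healthy-donor PBMCs expanded 4 days on anti-CD3 with 100 ng/mL IL-1β, starved ~4 h in RPMI-0.1% BSA, preincubated 30 min with peptide, then stimulated 30 min at 37 °C with 5 ng/mL IL-23. Lysate pSTAT3 measured by MSD phospho-STAT panel; IC50 derived.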

Structure (SMILES) | IC50 [1] | IC50 [2]
CC(=O)N(C)CCCC[C@@H]1NC(=O)[C@H](Cc2c[nH]c3c(C)cccc23)NC(=O)[C@H]([C@@H](C)O)NC(=O)[C@H](CC(=O)N(C)C)NC(=O)[C@@H](NC(=O)CCOCCOCCOCCOCCOCCOCCNC(=O)CC[C@H](NC(=O)CCCCCCCCCCCCCCCCC(=O)O)C(=O)O)C(C)(C)SSC(C)(C)[C@@H](C(=O)N[C@@H](Cc2ccc(OCCOCCOCC[N+](C)(C)C)cc2)C(=O)N[C@@H](Cc2ccc3ccccc3c2)C(=O)NC2(C(=O)N[C@@H](CCCCN(C)C(C)=O)C(=O)N[C@@H](CC(N)=O)C(=O)N[C@@H](Cc3cccnc3)C(=O)N(C)CC(=O)N(C)C)CCOCC2)NC1=O [compound 109, HOC18gEPEG6CO-Pen(3)-N(N(Me)2)-T-7MeW-K(NMeAc)-Pen(3)-APEG3F-2Nal-THP-K(NMeAc)-N-3Pya-Sar-CON(Me)2] ({C18 diacid-γGlu-PEG6}-[Pen]D(NMe2)T[Trp(7-Me)][Lys(Me)](Ac)[Pen]Y(CH2CH2OCH2CH2OCH2CH2NMe3+)[2Nal][Thp][Lys(Me)](Ac)N[3Pal][Sar]-NMe2; disulfide 1-6) | < 50 nM | < 0.5 nM
C=C(O)CCCCCCCCCCCCCCCCC(=O)N[C@@H](CCC(=O)NCCOCCOCC(=O)NCCCCCOCC(=O)NCCCC[C@@H]1NC(=O)[C@@H](NC(=O)CCOCCOCC[N+](C)(C)C)CCCC[C@@H](C(=O)N[C@@H](Cc2ccc(OCCOCCOCC[N+](C)(C)C)cc2)C(=O)N[C@@H](Cc2ccc3ccccc3c2)C(=O)NC2(C(=O)N[C@@H](CCCCN(C)C(C)=O)C(=O)N[C@@H](CC(N)=O)C(=O)N[C@@H](Cc3cccnc3)C(=O)N(C)CC(=O)N(C)C)CCCCC2)NC(=O)[C@H](CCCCN(C)C(C)=O)NC(=O)[C@H](Cc2c[nH]c3c(C)cccc23)NC(=O)[C@H]([C@@H](C)O)NC1=O)C(=O)O [compound 158, cPEG3aCO-Pen(3)-K(PEG2PEG2gEC18OH)-T-7MeW-K(NMeAc)-Pen(3)-APEG3F-2Nal-THP-K(NMeAc)-N-3Pya-Sar-CON(Me)2] | 50 to 500 nM | 0.5 to 5 nM
CC(=O)N(C)CCCC[C@@H]1NC(=O)[C@H](CC2=CCc3c(C)cccc32)NC(=O)[C@H]([C@@H](C)O)NC(=O)[C@H](CC(=O)N(C)C)NC(=O)[C@@H](NC(=O)CCOCCOCC[N+](C)(C)C)C(C)(C)SSC(C)(C)C(CN[C@@H](Cc2ccc(OCCNC(=O)C[N+](C)(C)CCNC(=O)CCOCCOCCOCCOCCOCCOCCNC(=O)CC[C@H](CC(=O)CCCCCCCCCCCCCCCCCCC(=O)O)C(=O)O)cc2)C(=O)N[C@@H](Cc2ccc3ccccc3c2)C(=O)NC2(C(=O)N[C@@H](CCCCN(C)C(C)=O)C(=O)N[C@@H](CC(N)=O)C(=O)N[C@@H](Cc3cccnc3)C(C)N(C)CC(=O)N(C)C)CCOCC2)NC1=O (stereo partly drawn) [compound 140, cPEG3aCO-Pen(3)-N(N(Me)2)-T-7MeW-K(NMeAc)-Pen(3)-AEF(SP6PEG6gEC20OH)-2Nal-THP-K(NMeAc)-N-3Pya-Sar-CON(Me)2] | 50 to 500 nM | < 0.5 nM
Cc1cccc2c(C[C@@H]3NC(=O)[C@H]([C@@H](C)O)NC(=O)[C@H](CC(N)=O)NC(=O)[C@@H](NC(=O)[C@@H](CCCNC(=N)N)NC(=O)CCOCCOCC[N+](C)(C)C)C(C)(C)SSC(C)(C)[C@@H](C(=O)N[C@@H](Cc4ccc(OCCN)cc4)C(=O)N[C@@H](Cc4ccc5ccccc5c4)C(=O)NC4(C(=O)N[C@@H](CCC(=O)O)C(=O)N[C@@H](CC(N)=O)C(=O)N[C@@H](Cc5cccnc5)C(=O)N(C)CC(N)=O)CCOCC4)NC(=O)[C@H](CCCCNC(=O)COCCOCCNC(=O)COCCOCCNC(=O)CC[C@H](NC(=O)CCCCCCCCCCCCCCCCC(=O)O)C(=O)O)NC3=O)c[nH]c12 [compound 72, cPEG3aCO-r-Pen(3)-N-T-7MeW-K(PEG2PEG2C18OH)-Pen(3)-AEF-2Nal-THP-E-N-3Pya-Sar-CONH2] ({Me3N+(CH2)2O(CH2)2O(CH2)2CO}-[dR][Pen]NT[Trp(7-Me)]K([AEEA-AEEA-γGlu-C18 diacid])[Pen][AEF][2Nal][Thp]EN[3Pal][Sar]-NH2; disulfide 2-7) | 50 to 500 nM | < 0.5 nM
C=C(O)[C@H](CCC(=O)NCCOCCOCC(=O)NCCOCCOCC(=O)NCCCC[C@H](NC(=O)CN(C)C(=O)[C@H](Cc1cccnc1)NC(=O)[C@H](CC(N)=O)NC(=O)[C@H](CCCCNC(=O)CCC(=O)N[C@H](CC(=O)O)C[N+](C)(C)C)NC(=O)C1(NC(=O)[C@H](Cc2ccc3ccccc3c2)NC(=O)[C@H](Cc2ccc(OCCN)cc2)NC(=O)[C@H]2NC(=O)[C@H](CCCCNC(C)=O)NC(=O)[C@H](Cc3c[nH]c4c(C)cccc34)NC(=O)[C@H]([C@@H](C)O)NC(=O)[C@H](CC(N)=O)NC(=O)[C@@H](NC(C)=O)C(C)(C)SSC2(C)C)CCOCC1)C(N)=O)NC(=O)CCCCCCCCCCCCCCCCC(=O)O [compound 50, MeCO-Pen(3)-N-T-7MeW-K(Ac)-Pen(3)-AEF-2Nal-THP-K(d)-N-3Pya-Sar-K(PEG2PEG2gEC18OH)-CONH2] | 50 to 500 nM | < 0.5 nM
CC(=O)N(C)CCCC[C@@H]1NC(=O)[C@H](Cc2c[nH]c3c(C)cccc23)NC(=O)[C@H]([C@@H](C)O)NC(=O)[C@H](CC(=O)N(C)C)NC(=O)[C@@H](NC(=O)CCOCCOCC[N+](C)(C)C)C(C)(C)SSC(C)(C)[C@@H](C(=O)N[C@@H](Cc2ccc(OCCCCC[N+](C)(C)CCOCCOCCNC(=O)COCCOCCCC(=O)CC[C@H](CC(=O)CCCCCCCCCCCCCCCCC(=O)O)C(=O)O)cc2)C(=O)N[C@@H](Cc2ccc3ccccc3c2)C(=O)NC2(C(=O)N[C@@H](CCCCN(C)C(C)=O)C(=O)N[C@@H](CC(N)=O)C(=O)N[C@@H](Cc3cccnc3)C(=O)N(C)CC(=O)N(C)C)CCOCC2)NC1=O [compound 144, cPEG3aCO-Pen(3)-N(N(Me)2)-T-7MeW-K(NMeAc)-Pen(3)-TMAPF(PEG2PEG2gEC18OH)-2Nal-THP-K(NMeAc)-N-3Pya-Sar-CON(Me)2] ({Me3N+(CH2)2O(CH2)2O(CH2)2CO}-[Pen]D(NMe2)T[Trp(7-Me)][Lys(Me)](Ac)[Pen]Y(X41)[2Nal][Thp][Lys(Me)](Ac)N[3Pal][Sar]-NMe2; disulfide 1-6) | < 50 nM | 0.5 to 5 nM
CC(=O)NCCCC[C@@H]1NC(=O)[C@@H](Cc2c[nH]c3c(C)cccc23)NC(=O)[C@H]([C@@H](C)O)NC(=O)[C@H](CC(N)=O)NC(=O)[C@@H](NC(=O)[C@@H](CCCNC(=N)N)NC(=O)CCOCCOCCOCCOCCNC(=O)CCCC[C@@H]2SC[C@@H]3NC(=O)N[C@@H]32)C(C)(C)SSC(C)(C)[C@@H](C(=O)N[C@@H](Cc2ccc(OCCN)cc2)C(=O)N[C@@H](Cc2ccc3ccccc3c2)C(=O)NC2(C(=O)N[C@@H](CCC(=O)O)C(=O)N[C@@H](CC(N)=O)C(=O)N[C@@H](Cc3cccnc3)C(=O)N(C)CC(=O)N[C@@H](CCCCNC(=O)COCCCCCNC(=O)COCCOCCNC(=O)CC[C@H](NC(=O)CCCCCCCCCCCCCCCCC(=O)O)C(=O)O)C(N)=O)CCOCC2)NC1=O [compound 57, BiotinPEG4CO-r-Pen(3)-N-T-7MeW-K(Ac)-Pen(3)-AEF-2Nal-THP-E-N-3Pya-Sar-K(PEG2PEG2gEC18OH)-CONH2] ({Biotin-PEG4}-[dR][Pen]NT[dTrp(7-Me)]K(Ac)[Pen][AEF][2Nal][Thp]EN[3Pal][Sar]K(X22)-NH2; disulfide 2-7) | < 50 nM | < 0.5 nM
CC(=O)NCCCC[C@@H]1NC(=O)[C@H](CC2CNc3c(C)cccc32)NC(=O)[C@H]([C@@H](C)O)NC(=O)[C@H](CC(N)=O)NC(=O)[C@@H](NC(C)=O)C(C)(C)SSC(C)(C)[C@@H](C(=O)N[C@@H](Cc2ccc(OCCN)cc2)C(=O)N[C@@H](Cc2ccc3ccccc3c2)C(=O)NC2(C(=O)N[C@@H](CCCCNC(=O)CCOCCOCCOCCOCCOCCOCCOCCOCCOCCOCCOCCOCCNCCC[C@H](NC(=O)CCCCCCCCCCCCCCCCC(=O)O)C(=O)O)C(=O)N[C@@H](C)C(=O)N[C@@H](Cc3ccccc3)C(=O)N(C)CC(N)=O)CCOCC2)NC1=O (stereo partly drawn) [compound 100, MeCO-Pen(3)-N-T-7MeW-K(Ac)-Pen(3)-AEF-2Nal-THP-K(PEG12gEC18OH)-N-3Pya-Sar-CONH2] | < 50 nM | < 0.5 nM
